Experimental findings from patent US8183262B2, “Pyridine derivatives as mGluR2 antagonists” (Hoffmann-La Roche Inc., priority 2007, dated 2012) are described below.

Compound `NS(=O)(=O)c1cnc(-c2cn(-c3nc(-c4ccc(Cl)cc4)cc(C(F)(F)F)n3)cn2)s1` [Example 182, 2-{1-[4-(4-Chloro-phenyl)-6-trifluoromethyl-pyrimidin-2-yl]-1H-imidazol-4-yl}-thiazole-5-sulfonic acid amide] displayed a melting point of 263 °C.
The compound `Cc1cc(-c2ccc(C(F)(F)F)cc2)nc(-n2cnc(-c3ccc(S(N)(=O)=O)cc3)c2)n1` [Example 183, 4-{1-[4-Methyl-6-(4-trifluoromethyl-phenyl)-pyrimidin-2-yl]-1H-imidazol-4-yl}-benzenesulfonamide] returned a melting point of 323 °C.
Next, `Cc1cc(-c2ccc(C(F)(F)F)cc2)nc(-n2cnc(-c3cccc(S(N)(=O)=O)c3)c2)n1` [Example 184, 3-{1-[4-Methyl-6-(4-trifluoromethyl-phenyl)-pyrimidin-2-yl]-1H-imidazol-4-yl}-benzenesulfonamide]: 186 °C.
Next, `Nc1ccc(-c2cn(-c3nc(-c4cccc(Cl)c4)cc(C(F)(F)F)n3)cn2)cn1` [Example 186, 5-{1-[4-(3-Chloro-phenyl)-6-trifluoromethyl-pyrimidin-2-yl]-1H-imidazol-4-yl}-pyridin-2-ylamine]: 248 °C; `NS(=O)(=O)c1ccc(-c2cn(-c3nc(-c4cccc(Cl)c4)cc(C(F)(F)F)n3)cn2)s1` [Example 188, 5-{1-[4-(3-Chloro-phenyl)-6-trifluoromethyl-pyrimidin-2-yl]-1H-imidazol-4-yl}-thiophene-2-sulfonic acid amide]: 280 °C; `Cc1cc(-c2ccc(Cl)cc2)nc(-c2ccnc(-c3cccc(S(N)(=O)=O)c3)c2)n1` [Example 189, 3-{4-[4-(4-Chloro-phenyl)-6-methyl-pyrimidin-2-yl]-pyridin-2-yl}-benzenesulfonamide]: 224 °C.
Next, `Cc1cc(-c2ccc(Cl)cc2)nc(-n2cnc(-c3ccc(S(N)(=O)=O)s3)c2)n1` [Example 190, 5-{1-[4-(4-Chloro-phenyl)-6-methyl-pyrimidin-2-yl]-1H-imidazol-4-yl}-thiophene-2-sulfonic acid amide]: 281 °C; `Cc1cc(-c2ccc(C(F)(F)F)cc2)nc(-n2cnc(-c3ccc(S(N)(=O)=O)s3)c2)n1` [Example 191, 5-{1-[4-Methyl-6-(4-trifluoromethyl-phenyl)-pyrimidin-2-yl]-1H-imidazol-4-yl}-thiophene-2-sulfonic acid amide]: 277 °C.
Compound `Cc1cc(-c2ccc(Cl)cc2)nc(-c2ccnc(-c3ccc(S(N)(=O)=O)s3)c2)n1` [Example 192, 5-{4-[4-(4-Chloro-phenyl)-6-methyl-pyrimidin-2-yl]-pyridin-2-yl}-thiophene-2-sulfonic acid amide] came in with a melting point of 232.5 °C.
As for `Cc1cc(-c2ccc(Cl)c(Cl)c2)nc(-c2cccc(-c3cccc(S(N)(=O)=O)c3)c2)n1` [Example 193, 3′-[4-(3,4-Dichloro-phenyl)-6-methyl-pyrimidin-2-yl]-biphenyl-3-sulfonic acid amide], the melting point stood at 206.5 °C.
Next, `Cc1cc(-c2ccc(Cl)c(Cl)c2)nc(-c2ccnc(-c3cccc(S(N)(=O)=O)c3)c2)n1` [Example 194, 3-{4-[4-(3,4-Dichloro-phenyl)-6-methyl-pyrimidin-2-yl]-pyridin-2-yl}-benzenesulfonamide]: 202.5 °C; `Cc1cc(-c2ccc(Cl)c(Cl)c2)nc(-c2cccc(-c3ccc(S(N)(=O)=O)s3)c2)n1` [Example 195, 5-{3-[4-(3,4-Dichloro-phenyl)-6-methyl-pyrimidin-2-yl]-phenyl}-thiophene-2-sulfonic acid Amide]: 238 °C.
Next, `Cc1cc(-c2ccc(Cl)c(Cl)c2)nc(-c2ccnc(-c3ccc(S(N)(=O)=O)s3)c2)n1` [Example 196, 5-{4-[4-(3,4-Dichloro-phenyl)-6-methyl-pyrimidin-2-yl]-pyridin-2-yl}-thiophene-2-sulfonic acid amide]: 267 °C; `Cc1cc(-c2ccc(C(F)(F)F)cc2)nc(-c2ccnc(-c3ccc(S(N)(=O)=O)s3)c2)n1` [Example 197, 5-{4-[4-Methyl-6-(4-trifluoromethyl-phenyl)-pyrimidin-2-yl]-pyridin-2-yl}-thiophene-2-sulfonic acid amide]: 263.5 °C.
In the case of `Cc1cc(-c2ccc(Cl)c(Cl)c2)nc(-n2cnc(-c3cccc(S(N)(=O)=O)c3)c2)n1` [Example 198, 3-{1-[4-(3,4-Dichloro-phenyl)-6-methyl-pyrimidin-2-yl]-1H-imidazol-4-yl}-benzenesulfonamide], the melting point was found to be 210 °C.
In the case of `Cc1cc(-c2ccc(Cl)c(Cl)c2)nc(-n2cnc(-c3ccc(S(N)(=O)=O)cc3)c2)n1` [Example 199, 4-{1-[4-(3,4-Dichloro-phenyl)-6-methyl-pyrimidin-2-yl]-1H-imidazol-4-yl}-benzenesulfonamide] it was 282.5 °C; in that of `Cc1cc(-c2ccc(Cl)cc2)nc(-n2cnc(-c3ncc(S(N)(=O)=O)s3)c2)n1` [Example 200, 2-{1-[4-(4-Chloro-phenyl)-6-methyl-pyrimidin-2-yl]-1H-imidazol-4-yl}-thiazole-5-sulfonic acid amide], 255.5 °C; in that of `NS(=O)(=O)c1cccc(-c2cccc(-c3nc(-c4ccc(Cl)c(Cl)c4)cc(C(F)(F)F)n3)c2)c1` [Example 202, 3′-[4-(3,4-Dichloro-phenyl)-6-trifluoromethyl-pyrimidin-2-yl]-biphenyl-3-sulfonic acid amide], 241 °C.
In the case of `NS(=O)(=O)c1cccc(-c2cc(-c3nc(-c4ccc(Cl)c(Cl)c4)cc(C(F)(F)F)n3)ccn2)c1` [Example 203, 3-{4-[4-(3,4-Dichloro-phenyl)-6-trifluoromethyl-pyrimidin-2-yl]-pyridin-2-yl}-benzenesulfonamide] it was 247 °C; in that of `NS(=O)(=O)c1ccc(-c2cccc(-c3nc(-c4ccc(Cl)c(Cl)c4)cc(C(F)(F)F)n3)c2)s1` [Example 204, 5-{3-[4-(3,4-Dichloro-phenyl)-6-trifluoromethyl-pyrimidin-2-yl]-phenyl}-thiophene-2-sulfonic acid amide], 203 °C; in that of `NS(=O)(=O)c1ccc(-c2cc(-c3nc(-c4ccc(Cl)c(Cl)c4)cc(C(F)(F)F)n3)ccn2)s1` [Example 205, 5-{4-[4-(3,4-Dichloro-phenyl)-6-trifluoromethyl-pyrimidin-2-yl]-pyridin-2-yl}-thiophene-2-sulfonic acid amide], 266 °C.
Turning to `Cc1cc(-c2cc(C(F)(F)F)nc(-c3cccc(-c4cccc(S(N)(=O)=O)c4)c3)n2)ccc1C(F)(F)F` [Example 206, 3′-[4-(3-Methyl-4-trifluoromethyl-phenyl)-6-trifluoromethyl-pyrimidin-2-yl]-biphenyl-3-sulfonic acid amide], the melting point was 205 °C.
In the case of `Cc1cc(-c2cc(C(F)(F)F)nc(-c3cccc(-c4ccc(S(N)(=O)=O)s4)c3)n2)ccc1C(F)(F)F` [Example 207, 5-{3-[4-(3-Methyl-4-trifluoromethyl-phenyl)-6-trifluoromethyl-pyrimidin-2-yl]-phenyl}-thiophene-2-sulfonic acid amide] it was 216 °C; in that of `NS(=O)(=O)c1ccc(-c2cn(-c3nc(-c4ccc(Cl)c(Cl)c4)cc(C(F)(F)F)n3)cn2)s1` [Example 208, 5-{1-[4-(3,4-Dichloro-phenyl)-6-trifluoromethyl-pyrimidin-2-yl]-1H-imidazol-4-yl}-thiophene-2-sulfonic acid amide], 282 °C (dec.).
In the case of `Cc1cc(-c2cc(C(F)(F)F)nc(-n3cnc(-c4ccc(S(N)(=O)=O)s4)c3)n2)ccc1C(F)(F)F` [Example 209, 5-{1-[4-(3-Methyl-4-trifluoromethyl-phenyl)-6-trifluoromethyl-pyrimidin-2-yl]-1H-imidazol-4-yl}-thiophene-2-sulfonic acid amide] it was 260 °C; in that of `NS(=O)(=O)c1ccc(-c2cn(-c3nc(-c4ccc(Cl)c(Cl)c4)cc(C(F)(F)F)n3)cn2)cc1` [Example 211, 4-{1-[4-(3,4-Dichloro-phenyl)-6-trifluoromethyl-pyrimidin-2-yl]-1H-imidazol-4-yl}-benzenesulfonamide], 334 °C.
In turn, `Cc1cc(-c2cc(C(F)(F)F)nc(-n3cnc(-c4ccc(S(N)(=O)=O)cc4)c3)n2)ccc1C(F)(F)F` [Example 212, 4-{1-[4-(3-Methyl-4-trifluoromethyl-phenyl)-6-trifluoromethyl-pyrimidin-2-yl]-1H-imidazol-4-yl}-benzenesulfonamide] gave a melting point of 287 °C.
In the case of `Cc1cc(-c2cc(C(F)(F)F)nc(-n3cnc(-c4cccc(S(N)(=O)=O)c4)c3)n2)ccc1C(F)(F)F` [Example 213, 3-{1-[4-(3-Methyl-4-trifluoromethyl-phenyl)-6-trifluoromethyl-pyrimidin-2-yl]-1H-imidazol-4-yl}-benzenesulfonamide], the melting point worked out at 180 °C.
For the compound `Cc1cc(-c2ccc(Cl)c(Cl)c2)nc(-n2cnc(-c3cccc(S(C)(=O)=O)c3)c2)n1` [Example 214, 4-(3,4-Dichloro-phenyl)-2-[4-(3-methanesulfonyl-phenyl)-imidazol-1-yl]-6-methyl-pyrimidine], the melting point was 213 °C.
Next, `NS(=O)(=O)c1cccc(-c2cn(-c3nc(-c4ccc(Cl)c(Cl)c4)cc(C(F)(F)F)n3)cn2)c1` [Example 215, 3-{1-[4-(3,4-Dichloro-phenyl)-6-trifluoromethyl-pyrimidin-2-yl]-1H-imidazol-4-yl}-benzenesulfonamide]: 239 °C; `Cc1cc(-c2ccc(Cl)c(Cl)c2)nc(-n2cnc(-c3ccc(S(N)(=O)=O)s3)c2)n1` [Example 216, 5-{1-[4-(3,4-Dichloro-phenyl)-6-methyl-pyrimidin-2-yl]-1H-imidazol-4-yl}-thiophene-2-sulfonic acid amide]: 253.5 °C; `CS(=O)(=O)c1cccc(-c2cn(-c3nc(-c4ccc(C(F)(F)F)cc4)cc(C(F)(F)F)n3)cn2)c1` [Example 217, 2-[4-(3-Methanesulfonyl-phenyl)-imidazol-1-yl]-4-trifluoromethyl-6-(4-trifluoromethyl-phenyl)-pyrimidine]: 231 °C.
